target: T1, APOL1 (Homo sapiens, UniProt O14791); experiment: MultiTox-Fluor Multiplex Cytotoxicity Assay, tet-inducible APOL1 T-REx-HEK293 cells (G0, G1 or G2 clone not specified for Table 20); format: cell-based; details: tet-induced, 24 hours with compound, ratio of dead to live cells, read-out: IP50 (i.e., IC50 for cell proliferation)
T1 sequence (O14791 1-398): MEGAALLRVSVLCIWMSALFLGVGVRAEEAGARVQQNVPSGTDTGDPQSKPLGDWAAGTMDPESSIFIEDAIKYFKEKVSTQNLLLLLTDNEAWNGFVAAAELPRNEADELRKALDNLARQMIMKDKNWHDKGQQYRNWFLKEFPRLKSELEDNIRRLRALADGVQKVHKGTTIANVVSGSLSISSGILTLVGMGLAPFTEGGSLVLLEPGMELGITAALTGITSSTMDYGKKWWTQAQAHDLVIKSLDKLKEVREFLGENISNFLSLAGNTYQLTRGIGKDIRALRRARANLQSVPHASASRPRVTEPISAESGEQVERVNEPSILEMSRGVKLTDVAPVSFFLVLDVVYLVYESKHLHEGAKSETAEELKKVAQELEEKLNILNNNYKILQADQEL
Summary of the method: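 HEK293 T-REx cells with tet-inducible APOL1 G0, G1 or G2 clone, 23,400/well, treated with tetracycline plus compound (top 10 μM, 10-point 3-fold, duplicate) for 24 h at 37° C. MultiTox-Fluor dead/live fluorescence ratio, normalized to no-tet (100% viability) and 50 ng/mL tet (0% viability) controls, then curve-fitted.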

Question: Cc1n[nH]c(C(F)(F)Cn2cc(CN3CC[C@]4(C[C@@H]3C)OCCc3ccc(Cl)cc34)nn2)n1 [Compound 168] was tested. Which IC50 did it give?
Answer: 50 to 500 nM

Question: CC(C)n1cc(Cn2cc(CN3CC[C@]4(C[C@@H]3C)OCCc3ccc(Cl)cc34)nn2)c(=O)[nH]c1=O [Compound 169] was tested. Which IC50 did it give?
Answer: ≤ 50 nM

Question: With Cc1nn(CCO)cc1Cn1cc(CN2CC[C@]3(C[C@@H]2C)OCCc2ccc(Cl)cc23)nn1 [Compound 170] as the molecule, how does the IC50 read?
Answer: ≤ 50 nM

Question: For C[C@H]1C[C@@]2(CCN1Cc1cn(CC(=O)NCC3(C#N)CC3)nn1)OCCc1ccc(Cl)cc12 [Compound 171], which IC50 is on record?
Answer: ≤ 50 nM

Question: With C[C@H]1C[C@@]2(CCN1Cc1cn(Cc3ccc(C(N)=O)o3)nn1)OCCc1ccc(Cl)cc12 [Compound 172] as the molecule, how does the IC50 read?
Answer: ≤ 50 nM

Question: For CCNC(=O)NCCn1cc(CN2CC[C@]3(C[C@@H]2C)OCCc2ccc(Cl)cc23)nn1 [Compound 173], which IC50 is on record?
Answer: ≤ 50 nM

Question: Cc1ccc(Cn2cc(CN3CC[C@]4(C[C@@H]3C)OCCc3ccc(Cl)cc34)nn2)c(=O)[nH]1 [Compound 174] was tested. Which IC50 did it give?
Answer: 50 to 500 nM

Question: With C[C@H]1C[C@@]2(CCN1Cc1cn(CC3(CC(N)=O)CC3)nn1)OCCc1ccc(Cl)cc12 [Compound 175] as the molecule, how does the IC50 read?
Answer: ≤ 50 nM

Question: C[C@H]1C[C@@]2(CCN1Cc1cn(Cc3nccn(C)c3=O)nn1)OCCc1ccc(Cl)cc12 [Compound 176] was tested. Which IC50 did it give?
Answer: 50 to 500 nM

Question: With C[C@H]1C[C@@]2(CCN1Cc1cn(Cc3ncc4c(n3)CCOC4)nn1)OCCc1ccc(Cl)cc12 [Compound 177] as the molecule, how does the IC50 read?
Answer: 50 to 500 nM

Question: With Cc1nnc(O)c(Cn2cc(CN3CC[C@]4(C[C@@H]3C)OCCc3ccc(Cl)cc34)nn2)c1C [Compound 178] as the molecule, how does the IC50 read?
Answer: 50 to 500 nM

Question: With C[C@H]1C[C@@]2(CCN1Cc1cn(CCCn3ccc(=O)[nH]c3=O)nn1)OCCc1ccc(Cl)cc12 [Compound 179] as the molecule, how does the IC50 read?
Answer: ≤ 50 nM

Question: With Cc1cc(Cn2cc(CN3CC[C@]4(C[C@@H]3C)OCCc3ccc(Cl)cc34)nn2)cc(=O)[nH]1 [Compound 180] as the molecule, how does the IC50 read?
Answer: 50 to 500 nM

Question: With C[C@H]1C[C@@]2(CCN1Cc1cn(Cc3cn(C4COC4)nn3)nn1)OCCc1ccc(Cl)cc12 [Compound 181] as the molecule, how does the IC50 read?
Answer: ≤ 50 nM

Question: Which IC50 does the source give for C[C@H]1C[C@@]2(CCN1Cc1cn(Cc3ncc(C(N)=O)s3)nn1)OCCc1ccc(Cl)cc12 [Compound 182] here?
Answer: ≤ 50 nM

Question: Which IC50 does the source give for C[C@H]1C[C@@]2(CCN1Cc1cn(CCc3nccc(=O)[nH]3)nn1)OCCc1ccc(Cl)cc12 [Compound 183] here?
Answer: 50 to 500 nM

Question: With C[C@H]1C[C@@]2(CCN1Cc1cn(CC3(C(N)=O)CCOCC3)nn1)OCCc1ccc(Cl)cc12 [Compound 184] as the molecule, how does the IC50 read?
Answer: ≤ 50 nM

Question: How did the IC50 turn out when C[C@H]1C[C@@]2(CCN1Cc1cn(Cc3nnc(N(C)C)[nH]3)nn1)OCCc1ccc(Cl)cc12 [Compound 185] was run?
Answer: 50 to 500 nM

Question: Which IC50 does the source give for C[C@H]1C[C@@]2(CCN1Cc1cn(CC(=O)Nc3cn[nH]c3)nn1)OCCc1ccc(Cl)cc12 [Compound 186] here?
Answer: ≤ 50 nM

Question: With C[C@H]1C[C@@]2(CCN1Cc1cn(CCNS(=O)(=O)C3CC3)nn1)OCCc1ccc(Cl)cc12 [Compound 187] as the molecule, how does the IC50 read?
Answer: ≤ 50 nM

Question: C[C@H]1C[C@@]2(CCN1Cc1cn(CC3(C(N)=O)CC3)nn1)OCCc1ccc(Cl)cc12 [Compound 188] was tested. Which IC50 did it give?
Answer: ≤ 50 nM

Question: C[C@H]1C[C@@]2(CCN1Cc1cn(Cc3cn(C4CC4)c(=O)[nH]c3=O)nn1)OCCc1ccc(Cl)cc12 [Compound 189] was tested. Which IC50 did it give?
Answer: ≤ 50 nM

Question: CNC(=O)C1OC2(CCN(Cc3cnn(-c4ccccc4)c3)CC2)c2ccccc21 (stereo not shown) [Compound 190, N-methyl-1′-[(1-phenylpyrazol-4-yl)methyl]spiro[1H-isobenzofuran-3,4′-piperidine]-1-carboxamide] was tested. Which IC50 did it give?
Answer: ≥ 500 nM

Question: How did the IC50 turn out when NC(=O)C1OC2(CCN(Cc3cnn(-c4ccccc4)c3)CC2)c2cc(Cl)ccc21 (stereo not shown) [Compound 191, 5-chloro-1′-[(1-phenylpyrazol-4-yl)methyl]spiro[1H-isobenzofuran-3,4′-piperidine]-1-carboxamide] was run?
Answer: ≤ 50 nM

Question: O=C(O)C1OC2(CCN(Cc3cnn(-c4ccccc4)c3)CC2)c2cc(Cl)ccc21 (stereo not shown) [Compound 192, 5-chloro-1′-[(1-phenylpyrazol-4-yl)methyl]spiro[1H-isobenzofuran-3,4′-piperidine]-1-carboxylic acid] was tested. Which IC50 did it give?
Answer: ≥ 500 nM

Question: How did the IC50 turn out when CNC(=O)C1OC2(CCN(Cc3cnn(-c4ccccc4)c3)CC2)c2cc(Cl)ccc21 (stereo not shown) [Compound 195, 5-chloro-N-methyl-1′-[(1-phenylpyrazol-4-yl)methyl]spiro[1H-isobenzofuran-3,4′-piperidine]-1-carboxamide] was run?
Answer: ≤ 50 nM

Question: Cc1ccc2c(c1)C1(CCN(Cc3cnn(-c4ccccc4)c3)CC1)OC2C(N)=O (stereo not shown) [Compound 196] was tested. Which IC50 did it give?
Answer: ≤ 50 nM

Question: How did the IC50 turn out when NC(=O)C1OC2(CCN(Cc3cnn(-c4ccccc4)c3)CC2)c2cc(C(F)(F)F)ccc21 (stereo not shown) [Compound 197] was run?
Answer: ≤ 50 nM

Question: Which IC50 does the source give for CNC(=O)C1OC2(CCN(Cc3cnn(-c4ccccc4)c3)CC2)c2cc(C)ccc21 (stereo not shown) [Compound 198] here?
Answer: ≤ 50 nM

Question: CNC(=O)C1OC2(CCN(Cc3cnn(-c4ccccc4)c3)CC2)c2cc(C(F)(F)F)ccc21 (stereo not shown) [Compound 199] was tested. Which IC50 did it give?
Answer: 50 to 500 nM

Question: For CNC(=O)C1OC2(CCN(Cc3cnn(C4CCOCC4)c3)CC2)c2cc(Cl)ccc21 (stereo not shown) [Compound 200], which IC50 is on record?
Answer: 50 to 500 nM

Question: For NC(=O)C1OC2(CCN(Cc3cnn(-c4ccccn4)c3)CC2)c2cc(Cl)ccc21 (stereo not shown) [Compound 201], which IC50 is on record?
Answer: ≤ 50 nM

Question: CNC(=O)C1OC2(CCN(Cc3cnn(-c4cccnc4)c3)CC2)c2cc(Cl)ccc21 (stereo not shown) [Compound 202] was tested. Which IC50 did it give?
Answer: ≤ 50 nM

Question: With N#Cc1ccc2c(c1)C1(CCN(Cc3cnn(-c4ccccc4)c3)CC1)OC2C(N)=O (stereo not shown) [Compound 203, 5-cyano-1′-[(1-phenylpyrazol-4-yl)methyl]spiro[1H-isobenzofuran-3,4′-piperidine]-1-carboxamide] as the molecule, how does the IC50 read?
Answer: ≤ 50 nM

Question: With CNC(=O)C1OC2(CCN(Cc3cnn(-c4ccccc4)c3)CC2)c2cc(C#N)ccc21 (stereo not shown) [Compound 204, 5-cyano-N-methyl-1′-[(1-phenylpyrazol-4-yl)methyl]spiro[1H-isobenzofuran-3,4′-piperidine]-1-carboxamide] as the molecule, how does the IC50 read?
Answer: 50 to 500 nM

Question: How did the IC50 turn out when CCc1ccc2c(c1)C1(CCN(Cc3cnn(-c4ccccc4)c3)CC1)OC2C(N)=O (stereo not shown) [Compound 205, 5-ethyl-1′-[(1-phenylpyrazol-4-yl)methyl]spiro[1H-isobenzofuran-3,4′-piperidine]-1-carboxamide] was run?
Answer: ≤ 50 nM

Question: CCc1ccc2c(c1)C1(CCN(Cc3cnn(-c4ccccc4)c3)CC1)OC2C(=O)NC (stereo not shown) [Compound 206, 5-ethyl-N-methyl-1′-[(1-phenylpyrazol-4-yl)methyl]spiro[1H-isobenzofuran-3,4′-piperidine]-1-carboxamide] was tested. Which IC50 did it give?
Answer: 50 to 500 nM

Question: With CS(=O)(=O)CCn1cc(CN2CCC3(CC2)OC(C(N)=O)c2ccc(C(F)(F)F)cc23)nn1 (stereo not shown) [Compound 207, 1′-[[1-(2-methylsulfonylethyl)triazol-4-yl]methyl]-5-(trifluoromethyl)spiro[1H-isobenzofuran-3,4′-piperidine]-1-carboxamide] as the molecule, how does the IC50 read?
Answer: ≥ 500 nM

Question: Which IC50 does the source give for CS(=O)(=O)CCn1cc(CN2CCC3(CC2)OC(C(N)=O)c2ccc(Cl)cc23)nn1 (stereo not shown) [Compound 208, 5-chloro-1′-[[1-(2-methylsulfonylethyl)triazol-4-yl]methyl]spiro[1H-isobenzofuran-3,4′-piperidine]-1-carboxamide] here?
Answer: ≥ 500 nM

Question: Which IC50 does the source give for Cc1ncc(-n2cc(CN3CCC4(CC3)OC(C(N)=O)c3ccc(Cl)cc34)cn2)cn1 (stereo not shown) [Compound 209, 5-chloro-1′-[[1-(2-methylpyrimidin-5-yl)pyrazol-4-yl]methyl]spiro[1H-isobenzofuran-3,4′-piperidine]-1-carboxamide] here?
Answer: ≤ 50 nM

— patent US20250195483A1, “SPIRO PIPERIDINE DERIVATIVES AS INHIBITORS OF APOL1 AND METHODS OF USING SAME” (Vertex Pharmaceuticals Incorporated, priority 2022, published 2025)
